pIC50: −log10 of the molar value.
Columns and labels:
Assay type in all cases: cell-based
[1] = molecular target: T1, human PGD receptor (Homo sapiens, UniProt Q13258); experiment: cAMP antagonism test on the human prostaglandin D receptor (HTRF cAMP detection); conditions: selectivity towards hDP, IC50 measured by cAMP antagonism test
T1 sequence (Q13258 1-359): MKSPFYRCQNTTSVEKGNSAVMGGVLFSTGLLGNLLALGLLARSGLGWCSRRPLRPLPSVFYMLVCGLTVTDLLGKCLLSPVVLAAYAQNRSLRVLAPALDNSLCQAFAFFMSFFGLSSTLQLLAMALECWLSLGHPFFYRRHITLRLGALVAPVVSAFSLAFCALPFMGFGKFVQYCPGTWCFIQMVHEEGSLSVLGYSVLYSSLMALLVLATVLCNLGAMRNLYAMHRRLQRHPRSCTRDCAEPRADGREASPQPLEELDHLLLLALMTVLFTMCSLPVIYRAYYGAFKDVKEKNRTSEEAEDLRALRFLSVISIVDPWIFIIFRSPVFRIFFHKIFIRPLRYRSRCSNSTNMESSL
Method in brief: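 HTRF competition read-out (665/620 nm ratio ×10000), where higher FRET means less cAMP, i.e. antagonism. Compounds (0.8 nM–16.5 μM) were preincubated 20 min at RT with cells and cAMP-d2, PGD2 (3× solution, 6 nM) in IBMX-containing PBS added for 30 min at RT, then cells lysed 20 min.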

[2] = molecular target: EP2 subtype of the human PGE2 receptor (Homo sapiens, UniProt P43116); experiment: cAMP antagonism test on the human EP2 receptor (HTRF cAMP detection); conditions: hEP2 receptor, read-out: Antagonism hEP2 IC50
Sequence of EP2 subtype of the human PGE2 receptor (P43116 whole entry): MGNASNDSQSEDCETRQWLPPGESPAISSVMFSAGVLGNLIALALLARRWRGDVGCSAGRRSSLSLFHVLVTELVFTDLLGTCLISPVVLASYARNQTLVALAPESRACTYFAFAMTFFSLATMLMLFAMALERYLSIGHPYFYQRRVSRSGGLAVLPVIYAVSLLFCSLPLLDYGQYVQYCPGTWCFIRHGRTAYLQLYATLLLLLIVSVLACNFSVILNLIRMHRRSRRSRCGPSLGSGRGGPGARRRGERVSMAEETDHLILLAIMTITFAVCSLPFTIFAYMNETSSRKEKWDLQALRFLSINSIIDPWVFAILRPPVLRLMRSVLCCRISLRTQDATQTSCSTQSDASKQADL
Method in brief: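 Read-out is a competitive HTRF for cAMP: lysate cAMP displaces cAMP-d2 from Eu cryptate-labelled antibody, and antagonism raises the 665/620 nm ratio. Compound (0.8 nM–16.5 μM) added to EP2 cells 20 min at RT before 60 min PGE2 challenge (3× stock 1.5 nM) with IBMX, followed by 20 min lysis.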

[3] = molecular target: EP4 subtype of the human PGE2 receptor (Homo sapiens, UniProt P35408); experiment: cAMP antagonism test on the human EP4 receptor (HTRF cAMP detection); conditions: selectivity towards hEP4, IC50 measured by cAMP antagonism test
Sequence of EP4 subtype of the human PGE2 receptor (P35408 whole entry): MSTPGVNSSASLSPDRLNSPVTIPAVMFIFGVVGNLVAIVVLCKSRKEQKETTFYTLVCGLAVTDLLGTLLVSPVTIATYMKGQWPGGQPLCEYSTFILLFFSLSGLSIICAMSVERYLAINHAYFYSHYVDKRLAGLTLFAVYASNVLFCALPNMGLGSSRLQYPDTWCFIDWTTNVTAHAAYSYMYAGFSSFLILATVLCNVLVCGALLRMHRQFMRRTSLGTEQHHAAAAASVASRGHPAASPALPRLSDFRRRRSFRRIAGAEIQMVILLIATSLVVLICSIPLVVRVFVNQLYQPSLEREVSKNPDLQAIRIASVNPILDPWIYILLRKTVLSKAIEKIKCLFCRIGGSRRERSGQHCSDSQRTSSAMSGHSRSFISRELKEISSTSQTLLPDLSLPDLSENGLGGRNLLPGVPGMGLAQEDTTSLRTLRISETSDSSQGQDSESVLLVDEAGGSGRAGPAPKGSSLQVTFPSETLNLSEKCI
Method in brief: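 Competitive HTRF cAMP read-out (cAMP-d2 vs Eu-cryptate anti-cAMP antibody, 665/620 nm ratio) on lysed human EP4 cells. Compound (0.8 nM–16.5 μM) applied 20 min at RT before 60 min PGE2 challenge (3× solution 0.3 nM, IBMX present); 20 min lysis precedes reading.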

| Selectivity hEP2/hDP [1] | pIC50 [2] | Selectivity hEP2/hEP4 [3] | SMILES |
| --- | --- | --- | --- |
| xxx (xxx > 100) | 8.51 | xxx (xxx > 100) | COCCNC(=O)c1ccc2nn(CC3CCN(C(=O)c4ccc(OC5CCCC5)cc4)CC3)cc2c1C [Example 31, 2-({1-[4-(cyclo-pentyloxy)benzoyl]-piperidin-4-yl}-methyl)-N-(2-methoxyethyl)-4-methyl-2H-indazol-5-carboxamide] |
| xxx (xxx > 100) | 7.98 | xxx (xxx > 100) | COCCNC(=O)c1ccc2nn(CC3CCN(C(=O)c4ccc(C(F)F)cc4)CC3)cc2c1C [Example 32, 2-({1-[4-(difluoro-methyl)benzoyl]-piperidin-4-yl}-methyl)-N-(2-methoxyethyl)-4-methyl-2H-indazol-5-carboxamide] |
| xxx (xxx > 100) | 7.47 | xxx (xxx > 100) | COCCNC(=O)c1ccc2nn(CC3CCN(C(=O)c4ccc(C#N)cc4)CC3)cc2c1C [Example 33, 2-{[1-(4-cyano-benzoyl)piperidin-4-yl]methyl}-N-(2-methoxyethyl)-4-methyl-2H-indazol-5-carboxamide] |
| xxx (xxx > 100) | 6.87 | xxx (xxx > 100) | COCCNC(=O)c1ccc2nn(CC3CCN(C(=O)c4ccc(-n5ccnc5)cc4)CC3)cc2c1C [Example 34, 2-({1-[4-(1H-imidazol-1-yl)-benzoyl]piperidin-4-yl}methyl)-N-(2-methoxyethyl)-4-methyl-2H-indazol-5-carboxamide] |
| xxx (xxx > 100) | 7.16 | xxx (xxx > 100) | COCCNC(=O)c1ccc2nn(CC3CCN(C(=O)c4ccc(-c5ncco5)cc4)CC3)cc2c1C [Example 35, N-(2-methoxyethyl)-4-methyl-2-({1-[4-(oxazol-2-yl)-benzoyl]piperidin-4-yl}methyl)-2H-indazol-5-carboxamide] |
| xxx (xxx > 100) | 7.21 | xxx (xxx > 100) | COCCNC(=O)c1ccc2nn(CC3CCN(C(=O)c4ccc(-c5cnco5)cc4)CC3)cc2c1C [Example 36, N-(2-methoxyethyl)-4-methyl-2-({1-[4-(oxazol-5-yl)-benzoyl]piperidin-4-yl}methyl)-2H-indazol-5-carboxamide] |
| xxx (xxx > 100) | 6.98 | xxx (xxx > 100) | COCCNC(=O)c1ccc2nn(CC3CCN(C(=O)c4ccc(-c5ccno5)cc4)CC3)cc2c1C [Example 37, N-(2-methoxyethyl)-4-methyl-2-({1-[4-(isoxazol-5-yl)-benzoyl]piperidin-4-yl}methyl)-2H-indazol-5-carboxamide] |
| xxx (xxx > 100) | 7.55 | xxx (xxx > 100) | COCCNC(=O)c1ccc2nn(CC3CCN(C(=O)c4ccc(-n5cccn5)cc4)CC3)cc2c1C [Example 38, N-(2-methoxyethyl)-4-methyl-2-({1-[4-(1H-pyrazol-1-yl)-benzoyl]piperidin-4-yl}methyl)-2H-indazol-5-carboxamide] |
| xxx (xxx > 100) | 6.95 | xxx (xxx > 100) | COCCNC(=O)c1ccc2nn(CC3CCN(C(=O)c4ccc(-n5cncn5)cc4)CC3)cc2c1C [Example 39, N-(2-methoxyethyl)-4-methyl-2-({1-[4-(1H-1,2,4-triazol-1-yl)benzoyl]piperidin-4-yl}methyl)-2H-indazol-5-carboxamide] |
| xxx (xxx > 100) | 7.94 | xxx (xxx > 100) | COCCNC(=O)c1ccc2nn(CC3CCN(C(=O)c4ccc(OC(F)F)cc4F)CC3)cc2c1C [Example 40, 2-({1-[4-(difluoro-methoxy)-2-fluoro-benzoyl]piperidin-4-yl}methyl)-N-(2-methoxyethyl)-4-methyl-2H-indazol-5-carboxamide] |
| xxx (xxx > 100) | 8.25 | xxx (xxx > 100) | COCCNC(=O)c1ccc2nn(CC3CCN(C(=O)c4ccc(N5CCCC5)cc4F)CC3)cc2c1C [Example 41, 2-({1-[2-fluoro-4-(pyrrolidin-1-yl)-benzoyl]piperidin-4-yl}methyl)-N-(2-methoxyethyl)-4-methyl-2H-indazol-5-carboxamide] |
| xxx (xxx > 100) | 8.32 | xxx (xxx > 100) | COCCNC(=O)c1ccc2nn(CC3CCN(C(=O)c4ccc(-c5ccc(OC)cc5)cc4F)CC3)cc2c1C [Example 43, 2-({1-[(3-fluoro-4′-methoxybiphenyl-4-yl)carbonyl]piperidin-4-yl}methyl)-N-(2-methoxyethyl)-4-methyl-2H-indazol-5-carboxamide] |
| xxx (xxx > 100) | 8.41 | xxx (xxx > 100) | COCCNC(=O)c1ccc2nn(CC3CCN(C(=O)c4ccc(-c5ccc(C)cc5)cc4F)CC3)cc2c1C [Example 44, 2-({1-[(3-fluoro-4′-methylbiphenyl-4-yl)carbonyl]piperidin-4-yl}methyl)-N-(2-methoxyethyl)-4-methyl-2H-indazol-5-carboxamide] |
| xxx (xxx > 100) | 8.26 | xxx (xxx > 100) | COCCNC(=O)c1ccc2nn(CC3CCN(C(=O)c4ccc(-c5cccc(C(F)(F)F)c5)cc4F)CC3)cc2c1C [Example 45, 2-[(1-{[3-fluoro-3′-(trifluoromethyl)-biphenyl-4-yl]-carbonyl}-piperidin-4-yl)-methyl]-N-(2-methoxyethyl)-4-methyl-2H-indazol-5-carboxamide] |
| xxx (xxx > 100) | 8.31 | xxx (xxx > 100) | COCCNC(=O)c1ccc2nn(CC3CCN(C(=O)c4ccc(-c5ccccc5OC(F)(F)F)cc4F)CC3)cc2c1C [Example 46, 2-[(1-{[3-fluoro-2′-(trifluoromethoxy)-biphenyl-4-yl]-carbonyl}piperidin-4-yl)methyl]-N-(2-methoxyethyl)-4-methyl-2H-indazol-5-carboxamide] |
| xxx (xxx > 100) | 8.25 | xxx (xxx > 100) | COCCNC(=O)c1ccc2nn(CC3CCN(C(=O)c4ccc(-c5ccccc5F)cc4)CC3)cc2c1C [Example 47, 2-({1-[(2′-fluoro-biphenyl-4-yl)-carbonyl]piperidin-4-yl}methyl)-N-(2-methoxyethyl)-4-methyl-2H-indazol-5-carboxamide] |
| xxx (xxx > 100) | 8.25 | xxx (xxx > 100) | COCCNC(=O)c1ccc2nn(CC3CCN(C(=O)c4ccc(-c5ccc(F)cc5F)cc4)CC3)cc2c1C [Example 48, 2-({1-[(2′,4′-difluoro-biphenyl-4-yl)-carbonyl]piperidin-4-yl}methyl)-N-(2-methoxyethyl)-4-methyl-2H-indazol-5-carboxamide] |
| xxx (xxx > 100) | 8.19 | xxx (xxx > 100) | COCCNC(=O)c1ccc2nn(CC3CCN(C(=O)c4ccc(-c5ccccc5)c(F)c4)CC3)cc2c1C [Example 49, 2-({1-[(2-fluoro-biphenyl-4-yl)-carbonyl]piperidin-4-yl}methyl)-N-(2-methoxyethyl)-4-methyl-2H-indazol-5-carboxamide] |

From patent US9062041B2 (Bayer Intellectual Property GmbH, priority 2011, dated 2015)
